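Grown in 96-well plates, cells were treated for 48 hours with each compound at five concentrations. Insufficient inhibition: endpoint recorded as highest concentration tested. GI50 marks 50% less growth. At the TGI there is no net growth.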
Tests used:
Assay in all cases: growth of human tumour cells (NCI), 48 h
LOX IMVI melanoma = tested on: LOX IMVI melanoma
MALME-3M melanoma = tested on: MALME-3M melanoma
BT-549 breast = tested on: BT-549 breast
MDA-MB-231 breast = tested on: MDA-MB-231 breast
MDA-MB-435 = tested on: MDA-MB-435
U251 CNS = tested on: U251 CNS
SN12C renal = tested on: SN12C renal
RXF 393 renal = tested on: RXF 393 renal
SNB-75 CNS = tested on: SNB-75 CNS
HCC-2998 colon = tested on: HCC-2998 colon
HL-60(TB) leukemia = tested on: HL-60(TB) leukemia
KM12 colon = tested on: KM12 colon
SK-OV-3 ovarian = tested on: SK-OV-3 ovarian
SK-MEL-5 melanoma = tested on: SK-MEL-5 melanoma
NCI/ADR-RES ovarian = tested on: NCI/ADR-RES ovarian
SK-MEL-2 melanoma = tested on: SK-MEL-2 melanoma
TK-10 renal = tested on: TK-10 renal
A498 renal = tested on: A498 renal
OVCAR-5 ovarian = tested on: OVCAR-5 ovarian
SR leukemia = tested on: SR leukemia
UACC-62 melanoma = tested on: UACC-62 melanoma
HS 578T breast = tested on: HS 578T breast
SF-268 CNS = tested on: SF-268 CNS
HCT-116 colon = tested on: HCT-116 colon
NCI-H460 lung = tested on: NCI-H460 lung
NCI-H522 lung = tested on: NCI-H522 lung
PC-3 prostate = tested on: PC-3 prostate
786-0 renal = tested on: 786-0 renal
M14 melanoma = tested on: M14 melanoma
T-47D breast = tested on: T-47D breast
HOP-92 NSCLC = tested on: HOP-92 NSCLC
SF-539 CNS = tested on: SF-539 CNS
HT29 colon = tested on: HT29 colon
A549 NSCLC = tested on: A549 NSCLC
OVCAR-8 ovarian = tested on: OVCAR-8 ovarian
K-562 leukemia = tested on: K-562 leukemia
SF-295 CNS = tested on: SF-295 CNS
SNB-19 CNS = tested on: SNB-19 CNS
COLO 205 colon = tested on: COLO 205 colon
IGROV1 ovarian = tested on: IGROV1 ovarian
SW-620 colon = tested on: SW-620 colon
HOP-62 NSCLC = tested on: HOP-62 NSCLC
MOLT-4 leukemia = tested on: MOLT-4 leukemia
CCRF-CEM leukemia = tested on: CCRF-CEM leukemia
HCT-15 colon = tested on: HCT-15 colon
DU-145 prostate = tested on: DU-145 prostate
OVCAR-3 ovarian = tested on: OVCAR-3 ovarian
NCI-H23 lung = tested on: NCI-H23 lung
SK-MEL-28 melanoma = tested on: SK-MEL-28 melanoma
MCF7 breast = tested on: MCF7 breast
CAKI-1 renal = tested on: CAKI-1 renal
ACHN renal = tested on: ACHN renal

## COc1cc2c3c(cccc3c1)C(=O)N(CCN1CCCC1)C2=O
LOX IMVI melanoma
  GI50: 1680 nM
  TGI: 4.42 µM
MALME-3M melanoma
  GI50: 1880 nM
  TGI: 4.1 µM
BT-549 breast
  GI50: 2950 nM
  TGI: 8.33 µM
MDA-MB-231 breast
  GI50: 2460 nM
  TGI: 10.2 µM
MDA-MB-435
  GI50: 2810 nM
  TGI: 8.25 µM
U251 CNS
  GI50: 2750 nM
  TGI: 9.59 µM
SN12C renal
  GI50: 2410 nM
  TGI: 78.5 µM
RXF 393 renal
  GI50: 1410 nM
  TGI: 3.54 µM
SNB-75 CNS
  GI50: 1630 nM
  TGI: 3.65 µM
HCC-2998 colon
  GI50: 2630 nM
  TGI: 7.19 µM
HL-60(TB) leukemia
  GI50: 3.65 µM
  TGI: 61 µM
KM12 colon
  GI50: 2880 nM
  TGI: > 100 µM
SK-OV-3 ovarian
  GI50: 3.27 µM
  TGI: 14.5 µM
SK-MEL-5 melanoma
  GI50: 1560 nM
  TGI: 3.06 µM
NCI/ADR-RES ovarian
  GI50: 2250 nM
  TGI: 8.04 µM
SK-MEL-2 melanoma
  GI50: 3.14 µM
  TGI: 6.61 µM
TK-10 renal
  GI50: 24.8 µM
  TGI: > 100 µM
A498 renal
  GI50: 1960 nM
  TGI: 3.69 µM
OVCAR-5 ovarian
  GI50: 4.12 µM
  TGI: > 100 µM
SR leukemia
  GI50: 1470 nM
  TGI: > 100 µM
UACC-62 melanoma
  GI50: 1790 nM
  TGI: 3.71 µM
HS 578T breast
  GI50: 3.98 µM
  TGI: 13 µM
SF-268 CNS
  GI50: 2480 nM
  TGI: 9.06 µM
HCT-116 colon
  GI50: 753 nM
  TGI: > 100 µM
NCI-H460 lung
  GI50: 2260 nM
  TGI: 11.3 µM
NCI-H522 lung
  GI50: 2300 nM
  TGI: 5.78 µM
PC-3 prostate
  GI50: 2910 nM
  TGI: 11.9 µM
786-0 renal
  GI50: 2920 nM
  TGI: > 100 µM
M14 melanoma
  GI50: 2380 nM
  TGI: 5.66 µM
T-47D breast
  GI50: 2500 nM
  TGI: 8.76 µM
HOP-92 NSCLC
  GI50: 1550 nM
  TGI: 4.98 µM
SF-539 CNS
  GI50: 1980 nM
  TGI: 5.14 µM
HT29 colon
  GI50: 1790 nM
  TGI: 20.2 µM
A549 NSCLC
  GI50: 1910 nM
  TGI: 5.31 µM
OVCAR-8 ovarian
  GI50: 1660 nM
  TGI: > 100 µM
K-562 leukemia
  GI50: 3.62 µM
  TGI: > 100 µM
SF-295 CNS
  GI50: 2460 nM
  TGI: 6.44 µM
SNB-19 CNS
  GI50: 2830 nM
  TGI: 58.6 µM
COLO 205 colon
  GI50: 1480 nM
  TGI: 3.28 µM
IGROV1 ovarian
  GI50: 2660 nM
  TGI: 6.78 µM
SW-620 colon
  GI50: 2040 nM
  TGI: 15.7 µM
HOP-62 NSCLC
  GI50: 2100 nM
  TGI: 5.27 µM
MOLT-4 leukemia
  GI50: 3.09 µM
  TGI: > 100 µM
CCRF-CEM leukemia
  GI50: 2860 nM
  TGI: > 100 µM
HCT-15 colon
  GI50: 2630 nM
  TGI: > 100 µM
DU-145 prostate
  GI50: 2130 nM
  TGI: 5.97 µM
OVCAR-3 ovarian
  GI50: 2300 nM
  TGI: 6.29 µM
NCI-H23 lung
  GI50: 2490 nM
  TGI: 8.21 µM
SK-MEL-28 melanoma
  GI50: 1840 nM
  TGI: 3.43 µM
MCF7 breast
  GI50: 1710 nM
  TGI: 20.4 µM
CAKI-1 renal
  GI50: 2560 nM
  TGI: > 100 µM
ACHN renal
  GI50: 764 nM
  TGI: > 100 µM
